# Data as given in article PMC6022226, “Novel coumarin-6-sulfonamides as apoptotic anti-proliferative agents: synthesis, in vitro biological evaluation, and QSAR studies” (Journal of Enzyme Inhibition and Medicinal Chemistry, 2018).
# Like-named read-outs stand apart in the source and are kept apart here.
# Assays:
# [1] = system: HepG2 hepatocellular carcinoma; assay: In vitro anti-proliferative activity, SRB assay, HepG2; assay type: cell-based, human; details: for IC50: Homo sapiens
# Description: (§1) HepG2 liver cancer, MCF-7 breast cancer and Caco-2 cancer cell lines were obtained from the National Cancer Institute (Cairo, Egypt). Caco-2 cells were grown in DMEM while HepG2 and MCF-7 were grown in RPMI-1640. Media were supplemented with 10% heat-inactivated FBS, 50 units/mL of penicillin and 50 µg/mL of streptomycin and maintained at 37 °C in a humidified atmosphere containing 5% CO2. The cells were maintained as a “monolayer culture” by serial subculturing. Cytotoxicity was determined using the sulforhodamine B (SRB) method as previously described by Skehan et al.[50] Exponentially growing cells were collected using 0.25% trypsin-EDTA and seeded in 96-well plates at 1000–2000 cells/well in supplemented DMEM medium. After 24 h, cells were incubated for 72 h with various concentrations of the tested compounds as well as doxorubicin as the reference compound. Following 72 h of treatment, the cells were fixed with 10% trichloroacetic acid for 1 h at 4 °C. Wells were stained for 10 min at room temperature with 0.4% SRB dissolved in 1% acetic acid. The plates were air dried for 24 h, and the dye was solubilized with Tris–HCl for 5 min on a shaker at 1600 rpm. The optical density (OD) of each well was measured spectrophotometrically at 564 nm with an ELISA microplate reader (ChroMate-4300, FL, USA). The IC50 values were calculated according to the equation for Boltzmann sigmoidal concentrationeresponse curve using the nonlinear regression models (GraphPad, Prism Version 5). The results reported are means of at least three separate experiments. Significant differences were analyzed by one-way ANOVA wherein the differences were considered to be significant at p < .05.
# (§2) All the newly synthesized target coumarin sulfonamides were evaluated for their in vitro anti-proliferative activity against three human tumor cancer cell lines, HepG2 hepatocellular carcinoma, MCF-7 breast cancer, and Caco-2 colon cancer, using SRB colorimetric assay as described by Skehan et al.^50 Doxorubicin was involved in the experiments as a reference cytotoxic compound.
# [2] = system: Bax; assay: ELISA immunoassay, Bax expression level in HepG2 cells; assay type: cell-based, human; details: HepG2 cells treated at IC50 concentration
# Text: (§3) The levels of the apoptotic markers (Bax, caspase-3) and the anti-apoptotic marker (Bcl-2) were examined using ELISA colorimetric kits per the manufacturer’s protocol and referring to reported instructions[51] ^, [52].
# (§4) The Bcl-2 proteins family is mainly responsible for synchronizing the mitochondrial apoptotic pathway, and classified into two major classes: anti-apoptotic proteins such as Bcl-2 protein and the counteracting pro-apoptotic proteins including Bax protein. In this study, we examined the impact of coumarins 13a and 15a on the level of the anti-apoptotic Bcl2 and the level of the pro-apoptotic Bax (Table 3).
# [3] = system: Caco-2 colon cancer; assay: In vitro anti-proliferative activity, SRB assay, Caco-2; assay type: cell-based, human; details: Homo sapiens, Caco-2
# Description: as §1, §2
# [4] = system: HepG2 cells; assay: Annexin V-FITC/PI apoptosis assay; assay type: cell-based, human; details: HepG2, 24 h
# Description: Phosphatidylserine externalization was measured using Annexin V-FITC/PI apoptosis detection kit (BD Biosciences, San Jose, CA) according to the manufacturer's instructions, as reported earlier. HepG2 cells were treated with 13a at defined concentrations for 24 h.
# The apoptotic effect of coumarin 13a was further assured by Annexin V-FITC/PI (AV/PI) dual staining assay to investigate the occurrence of phosphatidylserine externalization (Figure 3).
# [5] = system: caspase-3; assay: ELISA immunoassay, active caspase-3 level in HepG2 cells; assay type: cell-based, human; details: HepG2 cells treated at IC50 concentration
# Text: as §3
# As a key executioner protease, caspase-3 is activated by upstream initiator caspases as caspase-9.
# [6] = system: Bcl-2; assay: ELISA immunoassay, Bcl-2 expression level in HepG2 cells; assay type: cell-based, human; details: HepG2 cells treated at IC50 concentration
# Text: as §3, §4
# [7] = system: MCF-7 breast cancer; assay: In vitro anti-proliferative activity, SRB assay, MCF-7; assay type: cell-based, human; details: Homo sapiens, MCF7, 72 h incubation, mean ± SE of three experiments
# Description: as §1, §2
# [8] = system: non-tumorigenic human normal lung fibroblast cell line (WI-38); assay: In vitro cytotoxicity towards normal WI-38 cells; assay type: cell-based
# [9] = system: HepG2 cells; assay: Cell cycle analysis by DNA flow cytometry (PI); assay type: cell-based, human; details: HepG2, 24 h, at IC50 concentration
# Description: Subsequently, the treated cells were collected by centrifugation, fixed in ice-cold 70% (v/v) ethanol, washed with PBS, re-suspended with 0.1 mg/mL RNase, stained with […] PI, and analyzed by flow cytometry using FACS Calibur (Becton Dickinson, BD). The cell cycle distributions were calculated using CellQuest software (Becton Dickinson)[53].
# The impact of compound 13a on cell cycle progression was examined in HepG2 cancer cell line after 24 h of treatment (Figure 2). This impact was illustrated by DNA flow cytometric analysis where HepG2 cells were treated with 13a at concentration equals to its IC50. […] Alteration of the Pre-G1 phase and arrest of G2-M phase were significant remarks for compound 13a to induce apoptosis in HepG2 cells.
smiles,measurement,setting,value
"CC(=NNc1nc(-c2ccccc2)cs1)c1ccc(NS(=O)(=O)c2ccc3oc(=O)ccc3c2)cc1 [Compound 13a, 2-Oxo-N-(4–(1-(2–(4-phenylthiazol-2-yl)hydrazono)ethyl)phenyl)-2H-chromene-6-sulfonamide]",fold increased potency than doxorubicin,[1]; HepG2 IC50 ratio,1.5 fold
same,IC50,"[1]; HepG2, 72 h, 72 h incubation, SRB, mean ± SE of three experiments, read-out: IC50 HepG2",3.48 ± 0.28 µM
same,IC50,"[1]; HepG2, training set, Table 4, -log IC50 (IC50 in µM), read-out: HepG2 Experimental activity (pIC50) (converted)",3.48 µM
same,Bax expression level,[2],453.3 Pg/mg protein
same,"Bax, folds of control",[2],16.5 folds
same,IC50,"[3]; 72 h incubation, SRB, mean ± SE of three experiments, read-out: IC50 Caco-2",83.4 ± 7.04 µM
same,IC50,"[3]; training set, Table 4, -log IC50 (IC50 in µM), read-out: Caco-2 Experimental activity (pIC50) (converted)",83.4 µM
same,"annexin V-FITC positive apoptotic cells, folds compared to control",[4],about 7.9 folds
same,annexin V-FITC positive apoptotic cells (UR + LR),[4]; control 1.75%,13.76%
same,Caspase-3 (active caspase-3 level),[5],0.3021 ng/mg protein
same,"Bcl-2, folds of control",[6],0.21 folds
same,Bcl-2 expression level,[6],1.51 ng/mg protein
same,"Bcl-2 level, % of control",[6],21.4%
same,IC50,[7],83.2 ± 6.85 µM
same,IC50,"[8]; Homo sapiens, WI-38, normal lung fibroblasts",73.2 ± 3.47 µM
same,Selectivity index,[8]; WI-38 versus HepG2,21
same,arrest in G2-M phase compared to control,[9],5.4 folds
same,increase in percentage of cells at Pre-G1 compared to control,[9],6.4 folds
